Columns and labels:
[1] = Blood pressure and heart rate responses to intravenous injection in anesthetized rats; format: in vivo, pentobarbital-anesthetized normotensive Wistar rats
Description: Measurement of blood pressure and heart rate
The method reported in Gen.
(§1) vasomolol (0.5, 1.0, 3.0 mg/kg)

[2] = system: phenylephrine-induced pressor response; test: Inhibition of phenylephrine-induced pressor response during intravenous infusion; format: in vivo, reserpinized rats; conditions: infusion 300 μg/kg/min; phenylephrine 10 μg/kg i.v.; data not shown
Description: The method reported in Gen. Pharmacol. 24, 1425, 1993 (by inventor group),
phenylephrine (10 μg/klg, i.v.)

β-adrenergic receptor = test: β-blockade and duration of action: inhibition of (-)isoproterenol-induced tachycardia during and after infusion; format: in vivo, pentobarbital-anesthetized rats
Description: Vasomolol (100 μg/kg/min) was infused consecutively into a femoral vein in pentobarbital-anesthetized rats. Each perfusion was maintained for 60 min. Before and during the infusion of vasomolol and esmolol, at 10-min intervals, bolus i.v. injections of (-) isoproterenol (0.5. μg/kg) were administered to assess the level of β-blockade. (-) lsoproterenol injections were also continued for 60 min. after termination of the highest dose of vasomolol and esmolol to assess the duration of β-blockade reported in J. Pharm. Exp. Ther. 237, 912, 1986 (by Quon, C. Y. et al.). The percentage of inhibition of the (-)isoproterenol-induced tachycardia parameter of β-blockade--was calculated during and after infusions of vasomolol.
isoproterenol (0.5 μg/kg)
as §1

[3] = biological target: T1, β-adrenoceptor, ventricular membranes (Sus scrofa, UniProt Q28998); test: Competition for [3H]-DHA binding to ventricular membranes; set-up: species or system pig
T1 construct: tissue local slaughterhouse; host or cells: pig heart ventricular membranes
T1 sequence (Q28998 whole entry): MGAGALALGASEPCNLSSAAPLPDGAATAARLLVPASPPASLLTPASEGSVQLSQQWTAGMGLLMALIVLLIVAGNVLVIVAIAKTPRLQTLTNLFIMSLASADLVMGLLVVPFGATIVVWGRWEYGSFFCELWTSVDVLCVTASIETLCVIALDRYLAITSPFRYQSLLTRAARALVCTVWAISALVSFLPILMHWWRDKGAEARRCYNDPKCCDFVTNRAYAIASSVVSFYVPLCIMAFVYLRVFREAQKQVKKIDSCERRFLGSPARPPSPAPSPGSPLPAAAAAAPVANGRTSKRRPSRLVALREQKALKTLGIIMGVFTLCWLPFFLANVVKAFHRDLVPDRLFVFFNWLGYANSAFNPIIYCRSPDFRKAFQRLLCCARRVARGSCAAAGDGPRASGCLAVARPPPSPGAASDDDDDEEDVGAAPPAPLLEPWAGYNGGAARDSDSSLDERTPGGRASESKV
Description: Pig's heart were obtained from a local slaughterhouse immediately after the animals had been killed and transported to our laboratory in ice-cold buffer (250 mM sucrose/50 mM Tris [hydroxymethyl] aminomethane HCl/1 mM magnesium chloride, pH 7.4). Various heart tissues were removed and prepared as detailed as described in Cardiovasc. […] In the test for receptor binding, the ventricles were placed in ice-cold buffer and all subsequent procedures were carried out at 4° C. The tissue was homogenised in 20 volumes of TE buffer (10 mmole.litre^-1 Tris-HCl, 1 mmole.litre^-1 EDTA, 0.1 mmole.litre^-1 ascorbic acid, pH 7.4) with three 12-s pulses using a Polytron homogenizer (Kinematica, Model PT 3000, Switzerland). The homogenate was filtered with pressure through muslin and the filtrate centrifuged for 10 min at 1000 g to remove connective tissue, unbroken cells and cell debris.
This membrane preparation has been described in Biochem. Biophys. Acta. […] The binding assay of [^3 H]-DHA was carried out as described in Biochem. Biophys. Res. Commun. […] [^3 ]-DHA and ventricular membranes (200-300 μg) were incubated for 60 min at 25° C. with and without the addition of 1 μM alprenolol, in 75 mM Tris-HCI buffer comprising MgCl2 25 mM, to make a final volume of 250 μl. In competitive binding experiments, the competing agent was added directly to the incubation mixture. The incubation was terminated by addition of 1 ml of ice-cold assay buffer followed by immediate filtration through Whatman GF/C glass fiber filters supported on a 12-port filter manifold (Millipore). The filters were immediately washed three times with 5 ml of ice-cold assay buffer and dried in an oven at 60° C. for 2 hr prior to adding 5 ml of Triton-toluene based scintillation fluid.
(§2) In each experiment, non-specifically bound [^3 H]-DHA was determined by incubating membrane protein and [^3 H]-DHA with 1 μM alprenolol. Specific binding was thus obtained by deducing this value from the total binding of [^3 H]-DHA for each sample.
All incubations were performed as described in the method section. Data shown are the means of three independent duplicate determinations.

blood and liver esterase = conditions: background, Drugs 33, 392, 1987; cited from earlier work
[4] = system: right atria and left atrial strips; test: Intrinsic sympathomimetic activity in isolated right atria and left atrial strips; set-up: species or system reserpinized guinea-pigs; conditions: in words
Description: Animals were pretreated with reserpine (10 mg/kg, i.p.) 24 hr prior to the experiment described in Naunyn-Schmiedeberg's Arch. […] All preparations including isolated right atria and left atria strips were studied.
All measurements are expressed as mean percentages of the control frequency or force in the same preparation.

[5] = Blood pressure and heart rate responses to intravenous injection in anesthetized rats; format: in vivo, pentobarbital-anesthetized normotensive Wistar rats; conditions: 0.1 mg/kg i.v.; mean ± SEM (n = 8)
[6] = system: β-adrenoceptor, ventricular membranes; test: [3H]-DHA saturation binding to ventricular membranes (Scatchard analysis); set-up: species or system pig
Description: Pig's heart were obtained from a local slaughterhouse immediately after the animals had been killed and transported to our laboratory in ice-cold buffer (250 mM sucrose/50 mM Tris [hydroxymethyl] aminomethane HCl/1 mM magnesium chloride, pH 7.4). Various heart tissues were removed and prepared as detailed as described in Cardiovasc. Res. 25, 764, 1991 (by Bjornerheim, R. et al.). In the test for receptor binding, the ventricles were placed in ice-cold buffer and all subsequent procedures were carried out at 4° C. The tissue was homogenised in 20 volumes of TE buffer (10 mmole.litre^-1 Tris-HCl, 1 mmole.litre^-1 EDTA, 0.1 mmole.litre^-1 ascorbic acid, pH 7.4) with three 12-s pulses using a Polytron homogenizer (Kinematica, Model PT 3000, Switzerland). The homogenate was filtered with pressure through muslin and the filtrate centrifuged for 10 min at 1000 g to remove connective tissue, unbroken cells and cell debris. The supernatant was centrifuged again at 10,000 g for 12 min. This second supernatant was then centrifuged for 15 min at 30,000 g and the final pellet was suspended in a assay buffer (75 mM Tris HCl/25 mM MgCl2, pH 7.4).
Protein was determined by the method in Anal. Biochem. 72, 248, 1976 (by Bradford, M. M. et al.). This membrane preparation has been described in Biochem. Biophys. Acta. 541, 334, 1978 (by Ciaraldi, T. et al.). The binding assay of [^3 H]-DHA was carried out as described in Biochem. Biophys. Res. Commun. 60, 703, 1974 ( by Lefkowitz, R. J. et al.) with slight modifications. [^3 ]-DHA and ventricular membranes (200-300 μg) were incubated for 60 min at 25° C. with and without the addition of 1 μM alprenolol, in 75 mM Tris-HCI buffer comprising MgCl2 25 mM, to make a final volume of 250 μl. In competitive binding experiments, the competing agent was added directly to the incubation mixture. The incubation was terminated by addition of 1 ml of ice-cold assay buffer followed by immediate filtration through Whatman GF/C glass fiber filters supported on a 12-port filter manifold (Millipore). The filters were immediately washed three times with 5 ml of ice-cold assay buffer and dried in an oven at 60° C. for 2 hr prior to adding 5 ml of Triton-toluene based scintillation fluid.
as §2, with “[^3 H]-DHA trapped in the filters was counted in a Wallac LKB 1211 rackbeta liquid scintillation counter with an efficiency of 41%. In” for “In”
[^3 H]dihydroalprenolol([^3 H]DHA) binding curve with pig ventricular membranes. […]

[7] = 0.5 mg/kg i.v., mean ± SEM (n = 8)
[8] = 1.0 mg/kg i.v., mean ± SEM (n = 8)
[9] = 3.0 mg/kg i.v., mean ± SEM (n = 8)

## COC(=O)CCc1ccc(OCC(O)CNC(C)C)cc1 (centres unmarked) [Esmolol]
[1]; [7]
  BP change: -4.0 ± 0.8 mm Hg
  HR change: -25.7 ± 2.4 bpm
  bradycardia duration: 3.7 ± 0.6 min
[1]; [8]
  BP change: -6.3 ± 1.3 mm Hg
  HR change: -37.5 ± 3.6 bpm
  bradycardia duration: 6.0 ± 1.3 min
[1]; [9]
  BP change: -8.7 ± 0.9 mm Hg
  HR change: -58.2 ± 4.7 bpm
  bradycardia duration: 7.5 ± 1.1 min
[1]; i.v. injection
  bradycardia duration: less than 10 min
[2]
  inhibition of phenylephrine-induced pressor response: could not significantly inhibit
β-adrenergic receptor; after initiating each infusion rate, isoproterenol 0.5 μg/kg
  onset of β-blockade to steady-state level: ≤ 10 min
β-adrenergic receptor; after termination of infusion, mean±S.E.M.
  time required for 50% recovery: 9.5 ± 1.0 min
β-adrenergic receptor; in words
  disappearance of β-blockade after termination of infusion: disappeared rapidly after the termination of infusion
[3]; in words
  order of potency inhibiting [3H]-DHA binding: (-) propranolol>>vasomolol=esmolol
[3]; mean±S.E.M.
  IC50: 5000 ± 1300 nM
Blood and liver esterase
  metabolism by blood and liver esterase: rapidly metabolized by blood and liver esterase

## CC(C)NCC(O)COc1cccc2ccccc12 (centres unmarked) [Propranolol]
[1]; 0.1 mg/kg i.v., mean ± SEM (n = 8)
  BP change: 3.9 ± 1.0 mm Hg
[1]; [7]
  BP change: 7.0 ± 1.6 mm Hg
  HR change: -50.6 ± 8.1 bpm
[1]; [8]
  BP change: 9.5 ± 1.1 mm Hg
  HR change: -65.0 ± 8.9 bpm
[4]
  negative inotropic and chronotropic effects: produced negative inotropic and chronotropic effects
[5]
  HR change: -30.7 ± 3.8 bpm

## CCCc1ccccc1OCC(O)CNC(C)C (centres unmarked) [[^3 H]-DHA, [^3 H]dihydroalprenolol]
[6]; 25° C., mean±S.E.M., Scatchard
  maximum binding capacity (Bmax): 120.3±6.0 fmol/mg protein
[6]; 25° C., mean±S.E.M., Scatchard, read-out: equilibrium dissociation constant (Kd)
  Kd: 8.1 ± 0.9 nM
[6]; data not shown
  duration of maintained binding equilibrium: up to 90 min
  time to reach binding equilibrium: approximately 20 min

## CC(C)NCC(O)c1ccc(O)c(O)c1 (centres unmarked) [isoproterenol, reference compound]
[4]; cumulative concentrations
  intrinsic sympathomimetic activity: effect on heart rate and contractility: produced concentration-dependent increases in heart rate and contractility

— patent US5939578A, “Vasomolol: an ultra short-acting and vasodilatory vanilloid type β - adrenoceptor antagonist” (Lin; Tong-Ho, priority 1996, dated 1999)
